Test results: patent US20230091225A1, “Bifunctional chimeric heterocyclic compounds for targeted degradation of androgen receptors and use thereof” (HINOVA PHARMACEUTICALS INC., priority 2019, published 2023)

tested on: LNCaP/AR cells; test: Inhibition of proliferation of LNCaP/AR prostate cancer cells (CCK-8); assay type: cell-based; conditions: 144 h; proliferation of LNCap/AR cells, 6 days, CCK-8; read-out: IC50

| Molecule | IC50 |
| --- | --- |
| Cc1ncsc1-c1ccc([C@H](C)NC(=O)[C@@H]2C[C@@H](O)CN2C(=O)[C@@H](NC(=O)COCCCCC#Cc2ccc(C(=O)N[C@H]3C(C)(C)[C@H](Oc4ccc(C#N)c(Br)c4)C3(C)C)cc2)C(C)(C)C)cc1 [Compound 404] | < 100 nM |
| N#Cc1ccc(O[C@H]2CC[C@H](N3Cc4cc(N5CCC(CN6CCN(c7ccc8c(c7)CN(C7CCC(=O)NC7=O)C8=O)CC6)CC5)ncc4C3=O)CC2)cc1Cl (some centres unmarked) [Compound 312] | 100 to 500 nM |
| Cc1ncsc1-c1ccc([C@H](C)NC(=O)[C@@H]2C[C@@H](O)CN2C(=O)[C@@H](NC(=O)COCCCCC#Cc2ccc3c(c2)CN([C@H]2C(C)(C)[C@H](Oc4ccc(C#N)c(Cl)c4)C2(C)C)C3=O)C(C)(C)C)cc1 [Compound 29] | < 100 nM |
| Cc1ncsc1-c1ccc([C@H](C)NC(=O)[C@@H]2C[C@@H](O)CN2C(=O)[C@@H](NC(=O)COCC2CCN(c3ccc4c(c3)CN([C@H]3C(C)(C)[C@H](Oc5ccc(C#N)c(Cl)c5)C3(C)C)C4=O)CC2)C(C)(C)C)cc1 [Compound 409] | < 100 nM |
| [2H]C([2H])([2H])N(C(=O)c1ccc(N2CCC(CN3CCN(c4cc5c(cc4F)C(=O)N(C4CCC(=O)NC4=O)C5)CC3)CC2)nc1)[C@H]1CC[C@H](Oc2ccc(C#N)c(Cl)c2)CC1 (some centres unmarked) [Compound 305, N-((1r,4r)-4-(3-chloro-4-cyanophenoxy)cyclohexyl)-6-(4-((4-(2-(2,6-dioxopiperidin-3-yl)-6-fluoro-1-oxoisoindol-5-yl)piperazin-1-yl)methyl)piperidin-1-yl)-N-deuteromethylnicotinamide] | 500 to 1000 nM |
| Cc1ncsc1-c1ccc([C@H](C)NC(=O)[C@@H]2C[C@@H](O)CN2C(=O)[C@@H](NC(=O)COCCCCCCc2ccc3c(c2)CN([C@H]2C(C)(C)[C@H](Oc4ccc(C#N)c(Cl)c4)C2(C)C)C3=O)C(C)(C)C)cc1 [Compound 408, (2S,4R)-1-((S)-2-(2-((6-(2-((1r,3r)-3-(3-chloro-4-cyanophenoxy)-2,2,4,4-tetramethylcyclobutyl)-1-oxoisoindolin-5-yl)hexyl)oxy)acetamide)-3,3-dimethylbutyryl)-4-hydroxy-N-((S)-1-(4-(4-methylthiazol-5-yl)phenyl)ethyl) pyrrolidine-2-carboxamide] | 100 to 500 nM |

same assay, conditions: LNCaP/AR, 144 h

| Molecule | IC50 |
| --- | --- |
| Cc1ncsc1-c1ccc([C@H](C)NC(=O)[C@@H]2C[C@@H](O)CN2C(=O)[C@@H](NC(=O)CCN2CC(CC#Cc3ccc4c(c3)CN([C@H]3C(C)(C)[C@H](Oc5ccc(C#N)c(Cl)c5)C3(C)C)C4=O)C2)C(C)(C)C)cc1 [Compound 44] | 100 to 500 nM |
| N#Cc1ccc(O[C@H]2CC[C@H](N3Cc4cc(N5CCC(CN6CCN(c7cc8c(cc7F)C(=O)N(C7CCC(=O)NC7=O)C8=O)CC6)CC5)ncc4C3=O)CC2)cc1Cl (some centres unmarked) [Compound 311] | > 1000 nM |

same assay, conditions: proliferation of LNCap/AR cells, 6 days, CCK-8; read-out: IC50

| Molecule | IC50 |
| --- | --- |
| 2-chloro-4-((1r,4r)-4-(2-(4-((4-(3-(2,6-dioxopiperidin-3-yl)-2-methyl-4-oxo-3,4-dihydroquinazoline-7-yl)piperazin-1-yl)methyl)piperidin-1-yl)-5-oxo-5H-pyrrolo[3,4-b]pyridin-6(7H)-yl)cyclohexyl)oxy)benzonitrile [Compound 309] | 100 to 500 nM |
| Cc1ncsc1-c1ccc([C@H](C)NC(=O)[C@@H]2C[C@@H](O)CN2C(=O)[C@@H](NC(=O)C2(OCCCCC#Cc3ccc4c(c3)CN(C3C(C)(C)C(Oc5ccc(C#N)c(Cl)c5)C3(C)C)C4=O)CC2)C(C)(C)C)cc1 (some centres unmarked) [Compound 41] | < 100 nM |
| CC1(C)[C@H](Oc2ccc(C#N)c(Cl)c2)C(C)(C)[C@H]1N1Cc2cc(C#Cc3cnn(C4CN(c5cc6c(cc5F)C(=O)N(C5CCC(=O)NC5=O)C6=O)C4)c3)ccc2C1=O (some centres unmarked) [Compound 310, 2-chloro-4-((1r,3r)-3-(5-((1-(1-(2-(2,6-dioxopiperidin-3-yl)-6-fluoro-1,3-dioxoisoindolin-5-yl)azetidine-3-yl)-1H-pyrazol-4-yl)ethynyl)-1-oxoisoindolin-2-yl)-2,2,4,4-tetramethylcyclobutoxy)benzonitrile] | > 1000 nM |
